Test results from PubChem BioAssay AID256 (DTP/NCI, 2004).
Several values for one entry are separate records, joined by “and”; a condition that tells them apart may be missing. Identical values can stand only once. Toxic doses and inconclusive results are not listed.

Tested on: CD2F1 mice, L1210 leukemia ip, survival T/C
Assay: NCI In Vivo Anticancer Drug Screen. Data for tumor model L1210 Leukemia (intraperitoneal) in CD2F1 (CDF1) mice
Conditions: higher = longer survival
How it was run: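 Mice carrying a transplanted tumor received test compound or vehicle alone. The value is the measurement in the treated group divided by that in the vehicle-treated control group.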

[1] = endpoint: mean survival time, dose: 200.0 mg/kg/injection, schedule: Q01DX009 (ip), vehicle: saline with Tween-80
[2] = endpoint: mean survival time, dose: 400.0 mg/kg/injection, schedule: Q01DX009 (ip), vehicle: saline with Tween-80
[3] = endpoint: mean survival time, dose: 100.0 mg/kg/injection, schedule: Q01DX009 (ip), vehicle: saline with Tween-80
[4] = endpoint: mean survival time, dose: 100.0 mg/kg/injection, schedule: Q04DX003 (ip), vehicle: saline with Tween-80
[5] = endpoint: mean survival time, dose: 200.0 mg/kg/injection, schedule: Q04DX003 (ip), vehicle: saline with Tween-80
[6] = endpoint: mean survival time, dose: 400.0 mg/kg/injection, schedule: Q04DX003 (ip), vehicle: saline with Tween-80
[7] = endpoint: mean survival time, dose: 25.0 mg/kg/injection, schedule: Q01DX009 (ip), vehicle: saline with Tween-80
[8] = endpoint: mean survival time, dose: 50.0 mg/kg/injection, schedule: Q01DX009 (ip), vehicle: saline with Tween-80

Structure (SMILES): CC(=O)OCC1OC(n2cnc(N)nc2=O)C(OC(C)=O)C1OC(C)=O (stereo not drawn)
- T/C (endpoint: mean survival time, dose: 1.56 mg/kg/injection, schedule: Q01DX009 (ip), vehicle: saline): 121 % of control
- T/C (endpoint: mean survival time, dose: 3.12 mg/kg/injection, schedule: Q01DX009 (ip), vehicle: saline): 158 % of control
- T/C (endpoint: mean survival time, dose: 6.25 mg/kg/injection, schedule: Q01DX009 (ip), vehicle: saline): 161 % of control
- T/C (endpoint: mean survival time, dose: 12.5 mg/kg/injection, schedule: Q01DX009 (ip), vehicle: saline): 169 % of control
- T/C (endpoint: mean survival time, dose: 25.0 mg/kg/injection, schedule: Q01DX009 (ip), vehicle: saline): 110 % of control and 111 % of control

Structure (SMILES): C[N+]12CCN(CC1)CC2
- T/C (endpoint: mean survival time, dose: 100.0 mg/kg/injection, schedule: Q04DX003 (ip), vehicle: saline): 102 % of control
- T/C (endpoint: mean survival time, dose: 200.0 mg/kg/injection, schedule: Q04DX003 (ip), vehicle: saline): 104 % of control
- T/C (endpoint: mean survival time, dose: 400.0 mg/kg/injection, schedule: Q04DX003 (ip), vehicle: saline): 104 % of control

Structure (SMILES): CN(C)C(=S)SCc1ccccc1
- T/C (endpoint: mean survival time, dose: 100.0 mg/kg/injection, schedule: Q04DX003 (ip), vehicle: other): 111 % of control
- T/C (endpoint: mean survival time, dose: 200.0 mg/kg/injection, schedule: Q04DX003 (ip), vehicle: other): 103 % of control
- T/C (endpoint: mean survival time, dose: 400.0 mg/kg/injection, schedule: Q04DX003 (ip), vehicle: other): 112 % of control

Structure (SMILES): CC(C)(C)CC(C)(C)c1ccc(OCCOc2ccc(C(=O)NCCNC(=O)c3ccc4ccccc4c3O)cc2N)cc1
- T/C [1]: 89 % of control
- T/C [2]: 89 % of control

Structure (SMILES): N#Cc1c2ccccc2nn1C1OC(CO)C(O)C1O (stereo not drawn)
- T/C (endpoint: mean survival time, dose: 100.0 mg/kg/injection, schedule: Q01DX005 (ip), vehicle: saline): 109 % of control
- T/C (endpoint: mean survival time, dose: 200.0 mg/kg/injection, schedule: Q01DX005 (ip), vehicle: saline): 98 % of control

Structure (SMILES): Nc1ncnc2c1nnn2C1OC(CO)C(O)C1O (stereo not drawn)
- T/C (endpoint: mean survival time, dose: 10.0 mg/kg/injection, schedule: Q01DX009 (ip), vehicle: Klucel (hydroxypropylcellulose) (HPC)): 110 % of control
- T/C (endpoint: mean survival time, dose: 15.0 mg/kg/injection, schedule: Q01DX009 (ip), vehicle: Klucel (hydroxypropylcellulose) (HPC)): 107 % of control
- T/C (endpoint: mean survival time, dose: 28.0 mg/kg/injection, schedule: Q01DX009 (ip), vehicle: Klucel (hydroxypropylcellulose) (HPC)): 121 % of control
- T/C (endpoint: mean survival time, dose: 63.0 mg/kg/injection, schedule: Q01DX009 (ip), vehicle: Klucel (hydroxypropylcellulose) (HPC)): 115 % of control

Structure (SMILES): COC(=O)C1(C)CCCC2(C)C1CCC13OC(=O)C(C(C)C)(CC21)C3O (stereo not drawn)
- T/C [3]: 94 % of control
- T/C [1]: 88 % of control
- T/C [2]: 92 % of control

Structure (SMILES): O=c1nc(NCC23CC4CC(CC(C4)C2)C3)ccn1C1OC(CO)C(O)C1O (stereo not drawn)
- T/C (endpoint: median survival time, dose: 12.5 mg/kg/injection, schedule: Q01DX005 (ip), vehicle: distilled water + Tween-80): 100 % of control
- T/C (endpoint: median survival time, dose: 25.0 mg/kg/injection, schedule: Q01DX005 (ip), vehicle: distilled water + Tween-80): 101 % of control
- T/C (endpoint: median survival time, dose: 50.0 mg/kg/injection, schedule: Q01DX005 (ip), vehicle: distilled water + Tween-80): 101 % of control
- T/C (endpoint: median survival time, dose: 100.0 mg/kg/injection, schedule: Q01DX005 (ip), vehicle: distilled water + Tween-80): 94 % of control
- T/C (endpoint: median survival time, dose: 200.0 mg/kg/injection, schedule: Q01DX005 (ip), vehicle: distilled water + Tween-80): 91 % of control

Structure (SMILES): O=C(O)C(Cl)(Br)C(Cl)c1ccccc1 (stereo not drawn)
- T/C [4]: 100 % of control
- T/C [5]: 102 % of control
- T/C [6]: 103 % of control

Structure (SMILES): O=C(COc1ccccc1)NCc1ccc([N+](=O)[O-])cc1
- T/C (endpoint: mean survival time, dose: 50.0 mg/kg/injection, schedule: Q01DX001 (ip), vehicle: saline with Tween-80): 96 % of control
- T/C (endpoint: mean survival time, dose: 100.0 mg/kg/injection, schedule: Q01DX001 (ip), vehicle: saline with Tween-80): 96 % of control
- T/C (endpoint: mean survival time, dose: 200.0 mg/kg/injection, schedule: Q01DX001 (ip), vehicle: saline with Tween-80): 91 % of control

Structure (SMILES): CSc1ccc(OC(=O)Nc2ccc(C)cc2C)cc1C
- T/C (endpoint: mean survival time, dose: 12.5 mg/kg/injection, schedule: Q01DX009 (ip), vehicle: saline with Tween-80): 95 % of control
- T/C [7]: 91 % of control
- T/C [8]: 87 % of control and 89 % of control
- T/C [1]: 93 % of control

Structure (SMILES): CCOC(=O)S(=O)(=O)c1ccc(C)cc1
- T/C (endpoint: mean survival time, dose: 100.0 mg/kg/injection, schedule: Q01DX009 (ip), vehicle: acetone): 101 % of control
- T/C (endpoint: mean survival time, dose: 200.0 mg/kg/injection, schedule: Q01DX009 (ip), vehicle: acetone): 109 % of control
- T/C (endpoint: mean survival time, dose: 400.0 mg/kg/injection, schedule: Q01DX009 (ip), vehicle: acetone): 114 % of control

Structure (SMILES): Cc1ccc(NC(=O)Oc2cc(C)c(Cl)cc2C)cc1C
- T/C [8]: 100 % of control
- T/C [3]: 100 % of control
- T/C [1]: 92 % of control

Structure (SMILES): CC(C)COP(=O)(OCC(C)C)OCC(C)C
- T/C [4]: 100 % of control
- T/C [5]: 92 % of control

Structure (SMILES): Cc1ccc(CNC2=C(Cl)C(=O)c3ccccc3C2=O)cc1
- T/C (endpoint: mean survival time, dose: 6.25 mg/kg/injection, schedule: Q04DX003 (ip), vehicle: saline with Tween-80): 95 % of control
- T/C (endpoint: mean survival time, dose: 12.5 mg/kg/injection, schedule: Q04DX003 (ip), vehicle: saline with Tween-80): 98 % of control
- T/C (endpoint: mean survival time, dose: 25.0 mg/kg/injection, schedule: Q04DX003 (ip), vehicle: saline with Tween-80): 94 % of control and 97 % of control

Structure (SMILES): CC(=O)CCC(=O)OCc1ccccc1
- T/C [7]: 102 % of control
- T/C [8]: 96 % of control
- T/C [3]: 108 % of control
- T/C [1]: 101 % of control
- T/C [2]: 98 % of control

Structure (SMILES): CC(C)CCC(=O)c1ccoc1
- T/C (endpoint: median survival time, dose: 0.12 mg/kg/injection, schedule: Q03HX015 (ip), vehicle: saline with Tween-80): 100 % of control
- T/C (endpoint: median survival time, dose: 0.25 mg/kg/injection, schedule: Q03HX015 (ip), vehicle: saline with Tween-80): 103 % of control
- T/C (endpoint: median survival time, dose: 0.5 mg/kg/injection, schedule: Q03HX015 (ip), vehicle: saline with Tween-80): 101 % of control
- T/C (endpoint: median survival time, dose: 1.0 mg/kg/injection, schedule: Q03HX015 (ip), vehicle: saline with Tween-80): 100 % of control
- T/C (endpoint: median survival time, dose: 2.0 mg/kg/injection, schedule: Q03HX015 (ip), vehicle: saline with Tween-80): 96 % of control

Structure (SMILES): NC(=O)C1CC=CCC1 (stereo not drawn)
- T/C (endpoint: mean survival time, dose: 25.0 mg/kg/injection, schedule: Q04DX002 (ip), vehicle: saline with Tween-80): 110 % of control
- T/C (endpoint: mean survival time, dose: 50.0 mg/kg/injection, schedule: Q04DX002 (ip), vehicle: saline with Tween-80): 98 % of control
- T/C (endpoint: mean survival time, dose: 100.0 mg/kg/injection, schedule: Q04DX002 (ip), vehicle: saline with Tween-80): 94 % of control
- T/C (endpoint: mean survival time, dose: 200.0 mg/kg/injection, schedule: Q04DX002 (ip), vehicle: saline with Tween-80): 105 % of control

Structure (SMILES): OCC(F)(F)F
- T/C (endpoint: mean survival time, dose: 100.0 mg/kg/injection, schedule: Q01DX009 (ip), vehicle: saline): 123 % of control
- T/C [4]: 108 % of control
- T/C [5]: 110 % of control
- T/C [6]: 115 % of control

Structure (SMILES): N#CCS(=O)(=O)c1cccc[n+]1[O-]
- T/C (endpoint: median survival time, dose: 25.0 mg/kg/injection, schedule: Q01DX009 (ip), vehicle: saline with Tween-80): 97 % of control
- T/C (endpoint: median survival time, dose: 50.0 mg/kg/injection, schedule: Q01DX009 (ip), vehicle: saline with Tween-80): 98 % of control
- T/C (endpoint: median survival time, dose: 100.0 mg/kg/injection, schedule: Q01DX009 (ip), vehicle: saline with Tween-80): 98 % of control
- T/C (endpoint: median survival time, dose: 200.0 mg/kg/injection, schedule: Q01DX009 (ip), vehicle: saline with Tween-80): 107 % of control
- T/C (endpoint: median survival time, dose: 400.0 mg/kg/injection, schedule: Q01DX009 (ip), vehicle: saline with Tween-80): 116 % of control

Structure (SMILES): C/C=C/CNc1ccc(C)cc1
- T/C (endpoint: mean survival time, dose: 66.0 mg/kg/injection, schedule: Q01DX009 (ip), vehicle: saline with Tween-80): 98 % of control
- T/C [3]: 100 % of control
- T/C [4]: 103 % of control
- T/C (endpoint: mean survival time, dose: 150.0 mg/kg/injection, schedule: Q01DX009 (ip), vehicle: saline with Tween-80): 102 % of control

Structure (SMILES): C=C(C)C1(CC)C(=O)NC(=S)N(C)C1=O (stereo not drawn)
- T/C (endpoint: mean survival time, dose: 75.0 mg/kg/injection, schedule: Q01DX001 (ip), vehicle: saline): 97 % of control
- T/C (endpoint: mean survival time, dose: 150.0 mg/kg/injection, schedule: Q01DX001 (ip), vehicle: saline): 101 % of control
- T/C (endpoint: mean survival time, dose: 300.0 mg/kg/injection, schedule: Q01DX001 (ip), vehicle: saline): 101 % of control

Structure (SMILES): Cc1ccc(Nc2c3ccccc3nc3ccccc23)cc1
- T/C (endpoint: mean survival time, dose: 37.5 mg/kg/injection, schedule: Q04DX003 (ip), vehicle: saline with Tween-80): 101 % of control
- T/C (endpoint: mean survival time, dose: 40.0 mg/kg/injection, schedule: Q04DX003 (ip), vehicle: other): 120 % of control
- T/C (endpoint: mean survival time, dose: 75.0 mg/kg/injection, schedule: Q04DX003 (ip), vehicle: saline with Tween-80): 102 % of control
- T/C (endpoint: mean survival time, dose: 150.0 mg/kg/injection, schedule: Q04DX003 (ip), vehicle: other): 160 % of control

Structure (SMILES): CC(=O)Nc1c([N+](=O)[O-])cc2c3c(cccc13)CC2
- T/C [3]: 102 % of control
- T/C [4]: 100 % of control
- T/C [1]: 97 % of control
- T/C [5]: 102 % of control
- T/C [2]: 97 % of control
- T/C [6]: 100 % of control

Structure (SMILES): CCc1cc(O)cc(C)c1Cl
- T/C [3]: 96 % of control
- T/C [4]: 92 % of control
- T/C [1]: 92 % of control
- T/C [5]: 92 % of control
- T/C [6]: 100 % of control
